For the assay, the system named is patients affected by acute renal failures. Briefly: Clinical case reports: N-acetycysteine given to patients with acute renal failure. The format is in vivo, human.

This is an account of results in patent US6355682B1, “Treatment of acute renal failure by administration of N-acetylcysteine” (priority 2001, dated 2002).

In the case of `CC(=O)N[C@@H](CS)C(=O)O` [N-acetycysteine, N-acetylcysteine], the renal function entry by setting is: (Case No. 1: 10 mg/kg twice daily, over the next several days) “returned to normal”; (Case No. 2: 20 mg/kg every twelve hours, over the next seventy-two hours) “returned to normal”. The “BUN and Creatinin” value (Case No. 1: acute renal failure after cardiogenic shock, 600 mg in a 20% solution every twelve hours, the next day) was “the rise of BUN and Creatinin stopped”; the “BUN and Creatinin” value (Case No. 2: hypovolemic shock from acute pancreatitis, 20% solution, 20 mg/kg every twelve hours, values had risen to five times normal) is “The rise in their BUN and Creatinin stopped”; the “BUN and Creatinin” value (Case No. 3: multi-organ failure after cardiac arrest, 20 mg/kg every twelve hours via nasogastric tube, over the next several days) is reported as “progressively declined”. For the same compound, the need for dialysis entry (Case No. 1: after N-acetycysteine treatment) is given as “Dialysis was no longer required”, the need for dialysis result (Case No. 2: after N-acetycysteine treatment) is “Dialysis was no longer required” and the need for dialysis result (Case No. 4: two weeks after onset of renal toxicity) is “dialysis was no longer required”. Besides, the urine output result reads like this: (Case No. 3: 20 mg/kg every twelve hours via nasogastric tube, before treatment less than 100 cc per day) “increased to the normal level”; (Case No. 4: 10 mg/kg every twelve hours, within several days) “returned to normal”. Under “Case No. 4: 10 mg/kg every twelve hours, two weeks after onset of renal toxicity, 11 ml/minute before treatment, normal for age above 65 ml/min”, the Creatinin clearance came to 22 mL/min. Further, for the setting “Case No. 4: diabetic patient, acute renal failure under IV Vancomycin and Imipenim, 10 mg/kg every twelve hours, values had risen to five times normal”, the Bun/Creatinin entry is listed as “progressively declined”. For the same compound, the potassium level result (Case No. 5: 20 mg/kg every twelve hours, within 24 hours, serum potassium 6.8 before admission) is reported as “normalized”. The urine volume entry (Case No. 5: deterioration of chronic renal failure after Ciprofloxacin, 20 mg/kg every twelve hours, within 24 hours) is listed as “substantially increased”. Besides, the need for hemodialysis result (Case No. 5: remained on 600 mg twice daily) is given as “no longer required any hemodialysis”.
